Entries after “also recorded” stand apart in the source; their conditions may differ.
Experiments:
[1] = test system: C57BL/6 WT mice treated with tunicamycin; assay: Tunicamycin-induced hepatic and renal damage in WT mice in the presence and absence of PPG; type: in vivo, mouse
Text: In order to investigate the effects of elevated cystathionine upon the response to ER stress, wild type mice (n=6) were exposed to a single sub-lethal intraperitoneal injection of tunicamycin in the presence and absence of the CGL inactivating compound PPG. WT mice were randomly assigned to one of four treatment groups (n=6 for each group): 1) control, IP injected with PBS; 2) I.P. injection with PPG; 3) single I.P […] tunicamycin and 4) tunicamycin+PPG. In groups 2 and 4, PPG treatment was maintained by daily injection until sacrifice at three days post vehicle/tunicamycin injection. After the completion of this treatment regime, all mice were anaesthetized (isoflourane/oxygen) and sacrificed by decapitation, and blood samples were collected for plasma analysis. Livers and kidneys were removed, weighed and then samples were either immersion-fixed overnight in 4% paraformaldehyde in PBS (pH 7.3) for subsequent histological analysis or were snap frozen in liquid nitrogen and examined for morphological, histological and biochemical analyses.
Propensity for hepatic steatosis was examined in HO and wild type control mice using a methionine-choline deficient amino acid defined and iron supplemented diet (#518810 Dyets Inc., Bethlehem, Pa.)) and an isocaloric amino acid defined Lombardi choline sufficient diet with methionine control diet (518754, Dyets Inc., Bethlehem, Pa.) for 19 days as described previously (7). Experimental hypercystathionemia was induced by IP injection of the CGL inactivator PPG (50 mg·day-1·kg-1) as described previously (8). ER stress was induced in mice by a single IP injection with tunicamycin at 0.5 mg/kg body weight (volume <=1.0 ml). Control mice were sham treated by injection with an equal volume of PBS (9,10).
Tissues were immersion-fixed overnight in 4% paraformaldehyde in PBS (pH 7.3). Paraffin embedded sections (5 μm) were stained for examination with hematoxylin and eosin (H and E). Cells undergoing apoptosis were identified by labeling their DNA 3′-OH nick ends using a variant of terminal deoxynucleotidyl transferase-mediated dUTP nick end-labeling (TUNEL) staining. Staining was performed according to the manufacturer's instruction with ApopTag® Peroxidase in Situ Apoptosis Detection Kit (Millipore, Billerica, Mass.). Tissue sections were deparaffinized with xylene and washed in succession with different concentrations of ethanol (absolute, 95% and 70%). Tissue sections were then digested with proteinase K (20 μg/ml) for 15 min. Endogenous peroxidase activity was quenched with 3% H2O2 in PBS for 5 min. The slides were immersed in terminal deoxynucleotidyl transferase (TdT) buffer containing digoxigenin-labeled nucleotides at 37° C. for 1 h. After washing, anti-digoxigenin-peroxidase was added to cover the slides and incubated in a humid chamber at room temperature for 30 min. After washing with PBS, the slides were stained with diaminobenzidine and then counterstained with 1% methyl green. Light microscopy was performed to quantify the apoptotic cells, by counting cells in ten randomly selected fields (×100 magnification) of each slide with the following formula: number of apoptotic cells/total number of cells counted×100.
A party unaware of the animal's genotype or treatment group performed both histological analysis, of stained slides and TUNEL staining. Liver injury was assessed by determining plasma levels of alanine aminotransferase (ALT) activity using an enzyme-coupled assay with lactic dehydrogenase (LDH) as described previously (12) Liver lipid was extracted using the procedure of Bligh and Dyer (13) and after evaporation of the organic solvent, the triacylglycerol content of each sample was measured in duplicate using an enzymatic method (Sigma-Aldrich).

a23 cells = assay: Tunicamycin-induced cell death, LDH release, transsulfuration negative a23 cells; type: cell-based, Chinese hamster; settings: CBS and CGL negative, p=0.7301
Text: However, examination of a direct effect of exogenously added cystathionine is not currently possible in a whole animal model because of complications with the compounds solubility and rapid kinetics of its excretion. In order to investigate the direct effects of cystathionine against ER stress-induced cell death, the cytotoxicity of tunicamycin in the human embryonic kidney cell line 293AD and the human hepatoma cell line HepG2 in the presence and absence of both PPG and exogenously added cystathionine was examined. Preliminary experiments confirmed that both of these cell lines express both CBS and CGL (data not shown). In order to investigate the possible protective effects of cystathionine in the absence of transsulfuration, these experiments were repeated with the CBS and CGL negative Chinese hamster fibroblast line a23 (6).
Cells were seeded in triplicate at ˜75% confluence and pre-treated with either PPG) (5 mM), Cystathionine (1 mM) or with just complete media (DMEM, 10% FBS) as a control. […] To further evaluate a role for cystathionine in resisting the induction of cell death by tunicamycin, cell lysis was quantified by assaying lactate dehydrogenase (LDH) release. The enzyme activity was determined spectrophotometrically and the amount of enzyme leak was expressed as a percentage of the LDH activity observed in untreated control cells. […]

[2] = tunicamycin 0.5 mg/kg single IP + daily PPG, three days

## C#CCC(N)C(=O)O (racemic) [PPG, D,L-2-amino-4-pentynoic acid]
[1]; PPG alone control group
  apoptosis (Tunel staining): No apoptosis was observed
  morphological alteration (histology): no significant morphological alteration
  size and appearance of livers and kidneys: normal in size and appearance
[1]; [2]
  liver weight vs control groups: did not differ significantly from the control groups
  plasma ALT levels vs control groups: did not differ significantly from the control groups
  triglyceride levels vs control groups: did not differ significantly from the control groups
[1]; tunicamycin + PPG, three days
  gross appearance of livers and kidneys: appeared ostensibly normal; also recorded: this effect was not apparent
  tunicamycin-induced morphological changes in liver and kidney (H and E histology): effectively ablated; also recorded: significantly attenuated
[1]; tunicamycin treated mice pretreated with PPG
  apoptotic cells in kidney (Tunel staining): No apoptotic cells were observed
a23 cells
  cytoprotection against tunicamycin induced cell death: no significant cytoprotection
